Experimental data: EP0745595A1, “3-(3-Aryloxyphenyl)-1-(substituted methyl)-s-triazine-2,4,6-oxo or thiotrione herbicidal agents” (American Cyanamid Company, priority 1995, dated 1996)

What was measured:
Assay type in all cases: in vivo
[1] = test system: ORYZA SATIVA, L. TEBONNET; test: Rice tolerance to post-transplant applications under flooded paddy conditions, ORYSAT (Rice, Tebonnet); conditions: post-transplant rice, 3-4 weeks after treatment
Method: (§1) Results of herbicide evaluation are expressed on a rating scale (0-9). The scale is based upon a visual observation of plant stand, vigor, malformation, size, chlorosis and overall plant appearance as compared with a control.
The tolerance of transplanted rice to post-transplanted herbicide applications is determined as follows: two ten-day-old rice seedlings (CV. Tebonnet) are transplanted into a silt loam soil in 32 oz. plastic containers with a diameter of 10.5 cm and no drainage holes. After transplanting the containers are flooded and the water level is maintained at 1.5 to 3 cm above the soil surface. […] The treated containers are placed on greenhouse benches, watered such that the water level is maintained as stated above, and cared for according to normal greenhouse procedures. Three to four weeks after treatment the test is terminated and each container is examined and herbicidal effect rated according to the rating system provided in Example 40. The compounds evaluated are reported by compound number given in Example 40.
(§2) Plant species employed in this example are reported by header abbreviation, common name and scientific name.

CHENOPODIUM ALBUM, L. = test: Preemergence herbicidal evaluation, CHEAL (Lambsquarters, Common); conditions: rated four to five weeks after treatment
From the text: as §1
The preemergence herbicidal activity of the test compounds of the present invention is exemplified by the following tests in which the seeds of a variety of monocotyledonous and dicotyledonous plants are separately mixed with potting soil and planted on top of approximately one inch of soil in separate pint cups. […] The treated cups are then placed on greenhouse benches, watered and cared for in accordance with conventional greenhouse procedures. From four to five weeks after treatment, the tests are terminated and each cup is examined and rated according to the rating system provided in Example 40.
The compounds evaluated are reported by compound number given in Example 40.

CASSIA OBTUSIFOLIA, L. = test: Postemergence herbicidal evaluation, CASOB (Sicklepod); conditions: rated four to five weeks after treatment, averaged
Method: (§3) In the tests, seedling plants are grown in jiffy flats for about two weeks. The test compounds are dispersed in 50/50 acetone/water mixtures containing 0.5% TWEEN®20, a polyoxyethylene sorbitan monolaurate surfactant of Atlas Chemical Industries, in sufficient quantities to provide the equivalent of about 0.125 kg to 0.500 kg per hectare of active compound when applied to the plants through a spray nozzle operating at 40 psi for a predetermined time. After spraying, the plants are placed on greenhouse benches and are cared for in the usual manner, commensurate with conventional greenhouse practices. From four to five weeks after treatment, the seedling plants are examined and rated according to the rating system set forth below. Where more than one test is involved for a given compound, the data are averaged.
(§4) Plant species employed in these evaluations are reported by header abbreviation, common name and scientific name.
as §1

[2] = test system: AMBROSIA ARTEMISIIFOLIA, L.; test: Postemergence herbicidal evaluation, AMBEL (Ragweed, Common); conditions: rated four to five weeks after treatment, averaged
Method: as §3, with “in sufficient quantities to provide the equivalent of about 0.125 kg to 0.500 kg per hectare of active compound when applied” left out
as §4, §1

[…], PRESL. = Preemergence weed control under flooded paddy conditions, MOOVA (Monochoria); conditions: preemergence, 3-4 weeks after treatment
Method: as §1
(§5) Preemergence herbicidal activity under flooded paddy conditions is determined as follows: plant seeds or propagating organs are planted in the top 0.5 cm of silt loam soil in 32 oz. plastic containers with a diameter of 10.5 cm and no drainage holes. Water is added to these containers and maintained at 1.5 to 3 cm above the soil surface for the duration of the experiment. The test compounds are applied as aqueous/acetone mixtures 50/50 v/v pipetted directly into the flood water to give the equivalent of about 0.5, 0.25, 0.125 and 0.063 kg/ha of active ingredient. The treated containers are placed on greenhouse benches and cared for according to normal greenhouse procedures.- Three to four weeks after treatment the test is terminated and each container is examined and herbicidal effect rated according to the rating system provided in Example 40. The compounds evaluated are reported by compound number given in Example 40.
as §2

[3] = test system: ABUTILON THEOPHRASTI, MEDIC.; test: Postemergence herbicidal evaluation, ABUTH (Velvetleaf); conditions: rated four to five weeks after treatment, averaged
Method: as §3, with “in sufficient quantities to provide the equivalent of about 0.125 kg to 0.500 kg per hectare of active compound when applied” left out
as §4, §1

GALIUM APARINE = test: Postemergence herbicidal evaluation, GALAP (Galium); conditions: rated four to five weeks after treatment, averaged
Method: as §3, §4, §1

SAGITTARIA PYGMAEA, L. = test: Preemergence weed control under flooded paddy conditions, SAGPY (Arrowhead (Pygmaea)); conditions: preemergence, 3-4 weeks after treatment
Method: as §1
as §5, with “The test compounds are applied as aqueous/acetone mixtures 50/50 v/v pipetted directly into the flood water to give the equivalent of about 0.5, 0.25, 0.125 and 0.063 kg/ha of active ingredient.” left out
as §2

[4] = test system: CYPERUS SEROTINUS, ROTTB.; test: Preemergence weed control under flooded paddy conditions, CYPSE (Flatsedge); conditions: preemergence, 3-4 weeks after treatment
Method: as §1
as §5, with “The test compounds are applied as aqueous/acetone mixtures 50/50 v/v pipetted directly into the flood water to give the equivalent of about 0.5, 0.25, 0.125 and 0.063 kg/ha of active ingredient.” left out
as §2

IPOMOEA SPP. = test: Postemergence herbicidal evaluation, IPOSS (Morningglory spp.); conditions: rated four to five weeks after treatment, averaged
Method: as §3, with “in sufficient quantities to provide the equivalent of about 0.125 kg to 0.500 kg per hectare of active compound when applied” left out
as §4, §1

SMILES: Cn1c(=O)n(CC(=O)O)c(=O)n(-c2cc(Oc3c(F)cc(C(F)(F)F)cc3Cl)ccc2[N+](=O)[O-])c1=O [Compound 15, 3-{5-[(2-Chloro-α,α,α,6-tetrafluoro-p-tolyl)oxy]-2-nitrophenyl}tetrahydro-5-methyl-2,4,6-trioxo-s-triazine-1(2H)-acetic acid]
- Herbicidal effect rating, ORYSAT ([1]; 0.063 kg/ha): 4.5
- Herbicidal effect rating, ORYSAT ([1]; 0.125 kg/ha): 4.5
- Herbicidal effect rating, ORYSAT ([1]; 0.250 kg/ha): 7.0
- Herbicidal effect rating, ORYSAT ([1]; 0.500 kg/ha): 7.0
- CHEAL herbicidal rating (CHENOPODIUM ALBUM, L.; Rate 0.125 kg/ha): 9.0
- CHEAL herbicidal rating (CHENOPODIUM ALBUM, L.; Rate 0.250 kg/ha): 9.0
- CHEAL herbicidal rating (CHENOPODIUM ALBUM, L.; Rate 0.500 kg/ha): 9.0
- CASOB, herbicide rating (0-9) (CASSIA OBTUSIFOLIA, L.; Rate 0.125 kg/ha): 9.0
- CASOB, herbicide rating (0-9) (CASSIA OBTUSIFOLIA, L.; Rate 0.250 kg/ha): 9.0
- CASOB, herbicide rating (0-9) (CASSIA OBTUSIFOLIA, L.; Rate 0.500 kg/ha): 9.0
- AMBEL, herbicide rating (0-9) ([2]; Rate 0.125 kg/ha): 9.0
- AMBEL, herbicide rating (0-9) ([2]; Rate 0.250 kg/ha): 9.0
- AMBEL, herbicide rating (0-9) ([2]; Rate 0.500 kg/ha): 9.0
- Herbicidal effect rating, MOOVA ([…], PRESL.; 0.063 kg/ha): 9.0
- Herbicidal effect rating, MOOVA ([…], PRESL.; 0.125 kg/ha): 9.0
- Herbicidal effect rating, MOOVA ([…], PRESL.; 0.250 kg/ha): 9.0
- Herbicidal effect rating, MOOVA ([…], PRESL.; 0.500 kg/ha): 9.0
- ABUTH, herbicide rating (0-9) ([3]; Rate 0.125 kg/ha): 9.0
- ABUTH, herbicide rating (0-9) ([3]; Rate 0.250 kg/ha): 9.0
- ABUTH, herbicide rating (0-9) ([3]; Rate 0.500 kg/ha): 9.0

SMILES: COC(=O)Cn1c(=O)n(CC(=O)OC)c(=O)n(-c2cc(Oc3ccc(Cl)cc3Cl)ccc2[N+](=O)[O-])c1=O [Compound 19, Dimethyl 5-[5-(2,4-dichlorophenoxy)-2-nitro-phenyl]dihydro-2,4,6-trioxo-s-trizine-1,3-(2H,4H)-diacetate]
- GALAP, herbicide rating (0-9) (GALIUM APARINE; Rate 0.125 kg/ha): 9.0
- GALAP, herbicide rating (0-9) (GALIUM APARINE; Rate 0.250 kg/ha): 9.0
- GALAP, herbicide rating (0-9) (GALIUM APARINE; Rate 0.500 kg/ha): 9.0
- Herbicidal effect rating, ORYSAT ([1]; 0.063 kg/ha): 1.0
- Herbicidal effect rating, ORYSAT ([1]; 0.125 kg/ha): 1.0
- Herbicidal effect rating, ORYSAT ([1]; 0.250 kg/ha): 1.0
- Herbicidal effect rating, ORYSAT ([1]; 0.500 kg/ha): 1.0
- CASOB, herbicide rating (0-9) (CASSIA OBTUSIFOLIA, L.; Rate 0.125 kg/ha): 9.0
- CASOB, herbicide rating (0-9) (CASSIA OBTUSIFOLIA, L.; Rate 0.250 kg/ha): 9.0
- CASOB, herbicide rating (0-9) (CASSIA OBTUSIFOLIA, L.; Rate 0.500 kg/ha): 9.0
- Herbicidal effect rating, SAGPY (SAGITTARIA PYGMAEA, L.; 0.063 kg/ha): 0.0
- Herbicidal effect rating, SAGPY (SAGITTARIA PYGMAEA, L.; 0.125 kg/ha): 0.0
- Herbicidal effect rating, SAGPY (SAGITTARIA PYGMAEA, L.; 0.250 kg/ha): 0.0
- Herbicidal effect rating, SAGPY (SAGITTARIA PYGMAEA, L.; 0.500 kg/ha): 0.0
- Herbicidal effect rating, CYPSE ([4]; 0.063 kg/ha): 0.0
- Herbicidal effect rating, CYPSE ([4]; 0.125 kg/ha): 0.0
- Herbicidal effect rating, CYPSE ([4]; 0.250 kg/ha): 0.0
- Herbicidal effect rating, CYPSE ([4]; 0.500 kg/ha): 0.0
- Herbicidal effect rating, MOOVA ([…], PRESL.; 0.063 kg/ha): 9.0
- Herbicidal effect rating, MOOVA ([…], PRESL.; 0.125 kg/ha): 9.0
- Herbicidal effect rating, MOOVA ([…], PRESL.; 0.250 kg/ha): 9.0
- Herbicidal effect rating, MOOVA ([…], PRESL.; 0.500 kg/ha): 9.0
- ABUTH, herbicide rating (0-9) ([3]; Rate 0.125 kg/ha): 9.0
- ABUTH, herbicide rating (0-9) ([3]; Rate 0.250 kg/ha): 9.0
- ABUTH, herbicide rating (0-9) ([3]; Rate 0.500 kg/ha): 9.0

SMILES: COC(=O)Cn1c(=O)n(C)c(=O)n(-c2cc(Oc3ccc(Cl)c(C)c3Cl)ccc2[N+](=O)[O-])c1=O [Compound 20, Methyl 3-{5-[(2,4-dichloro-m-tolyl)oxy]-2-nitrophenyl}tetrahydro-5-methyl-2,4,6-trioxo-s-triazine-1(2H)-acetate]
- Herbicidal effect rating, ORYSAT ([1]; 0.063 kg/ha): 2.0
- Herbicidal effect rating, ORYSAT ([1]; 0.125 kg/ha): 3.0
- Herbicidal effect rating, ORYSAT ([1]; 0.250 kg/ha): 3.0
- Herbicidal effect rating, ORYSAT ([1]; 0.500 kg/ha): 4.0
- Herbicidal effect rating, SAGPY (SAGITTARIA PYGMAEA, L.; 0.063 kg/ha): 0.0
- Herbicidal effect rating, SAGPY (SAGITTARIA PYGMAEA, L.; 0.125 kg/ha): 0.0
- Herbicidal effect rating, SAGPY (SAGITTARIA PYGMAEA, L.; 0.250 kg/ha): 0.0
- Herbicidal effect rating, SAGPY (SAGITTARIA PYGMAEA, L.; 0.500 kg/ha): 0.0
- IPOSS, herbicide rating (0-9) (IPOMOEA SPP.; Rate 0.125 kg/ha): 9.0
- IPOSS, herbicide rating (0-9) (IPOMOEA SPP.; Rate 0.250 kg/ha): 9.0
- IPOSS, herbicide rating (0-9) (IPOMOEA SPP.; Rate 0.500 kg/ha): 9.0
- ABUTH, herbicide rating (0-9) ([3]; Rate 0.125 kg/ha): 9.0
- ABUTH, herbicide rating (0-9) ([3]; Rate 0.250 kg/ha): 9.0
- ABUTH, herbicide rating (0-9) ([3]; Rate 0.500 kg/ha): 9.0

SMILES: COC(=O)Cn1c(=O)n(C)c(=O)n(-c2cc(Oc3ccc(Cl)cc3F)ccc2[N+](=O)[O-])c1=O [Compound 23, Methyl 3-[5-(4-chloro-2-fluorophenoxy)-2-nitrophenyl]tetrahydro-5-methyl-2,4,6-trioxo-s-triazine-1(2H)-acetate]
- Herbicidal effect rating, ORYSAT ([1]; 0.063 kg/ha): 2.0
- Herbicidal effect rating, ORYSAT ([1]; 0.125 kg/ha): 2.0
- Herbicidal effect rating, ORYSAT ([1]; 0.250 kg/ha): 3.0
- Herbicidal effect rating, ORYSAT ([1]; 0.500 kg/ha): 3.0
- Herbicidal effect rating, SAGPY (SAGITTARIA PYGMAEA, L.; 0.063 kg/ha): 0.0
- Herbicidal effect rating, SAGPY (SAGITTARIA PYGMAEA, L.; 0.125 kg/ha): 0.0
- Herbicidal effect rating, SAGPY (SAGITTARIA PYGMAEA, L.; 0.250 kg/ha): 0.0
- Herbicidal effect rating, SAGPY (SAGITTARIA PYGMAEA, L.; 0.500 kg/ha): 0.0

SMILES: COC(=O)Cn1c(=O)n(C)c(=O)n(-c2cc(Oc3ccc(Cl)c(Cl)c3Cl)ccc2[N+](=O)[O-])c1=O [Compound 26, Methyl 3-[2-nitro-5-(2,3,4-trichlorophen-oxy)phenyl]tetrahydro-5-methyl-2,4,6-tri-oxo-s-triazine-1(2H)-acetate]
- Herbicidal effect rating, ORYSAT ([1]; 0.063 kg/ha): 2.0
- Herbicidal effect rating, ORYSAT ([1]; 0.125 kg/ha): 2.0
- Herbicidal effect rating, ORYSAT ([1]; 0.250 kg/ha): 3.0
- Herbicidal effect rating, ORYSAT ([1]; 0.500 kg/ha): 3.0
- Herbicidal effect rating, SAGPY (SAGITTARIA PYGMAEA, L.; 0.063 kg/ha): 0.0
- Herbicidal effect rating, SAGPY (SAGITTARIA PYGMAEA, L.; 0.125 kg/ha): 0.0
- Herbicidal effect rating, SAGPY (SAGITTARIA PYGMAEA, L.; 0.250 kg/ha): 0.0
- Herbicidal effect rating, SAGPY (SAGITTARIA PYGMAEA, L.; 0.500 kg/ha): 0.0
